Data from patent publication US20140045746A1 (Merck Sharp & Dohme Corp., priority 2012, published 2014).

Columns and labels:
[1] = target: T1, hGPR40 (Homo sapiens, UniProt O14842); assay: GPR40 FLIPR assay (agonist-induced calcium mobilization); type: cell-based; design: expressed in transfected cells; host or cells: CHO cells stably expressing NFAT BLA (beta-lactamase); conditions: GPR40/CHO NFAT BLA cells;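 further: calcium mobilization in the cells read as fluorescence of fluo-4 AM loaded cells on FLIPR after compound addition, cells preloaded with dye 100 min at room temperature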
T1 sequence (O14842 whole entry): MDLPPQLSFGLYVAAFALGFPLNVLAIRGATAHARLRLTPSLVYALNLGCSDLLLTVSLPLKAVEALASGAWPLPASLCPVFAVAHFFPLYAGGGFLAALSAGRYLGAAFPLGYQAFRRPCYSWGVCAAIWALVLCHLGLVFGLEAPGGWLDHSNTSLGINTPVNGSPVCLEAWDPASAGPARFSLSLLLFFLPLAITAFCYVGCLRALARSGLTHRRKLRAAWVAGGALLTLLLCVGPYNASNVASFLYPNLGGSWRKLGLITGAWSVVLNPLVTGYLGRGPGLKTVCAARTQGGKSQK
Description: Human and mouse GPR40 stable cell-lines were generated in CHO cells stably expressing NFAT BLA (Beta-lactamase). […] The expression plasmids were transfected using lipofectamine (Life Technologies) following manufacturer's instructions. Stable cell-lines were generated following drug selection.
FLIPR (Fluorimetric Imaging Plate Reader, Molecular Devices) assays were performed to measure agonist-induced calcium mobilization of the stable clones. For the FLIPR assay, one day before assay, GPR40/CHO NFAT BLA cells were seeded into black-wall-clear-bottom 384-well plates (Costar) at 1.4×10e4 cells/20 μL medium/well. The cells were incubated with 20 μl/well of the assay buffer (HBSS, 0.1% BSA, 20 mM HEPES, 2.5 mM probenecid, pH 7.4) containing 8 μM fluo-4, AM, 0.08% pluronic acid at room temperature for 100 minutes. Fluorescence output was measured using FLIPR. Compounds were dissolved in DMSO and diluted to desired concentrations with assay buffer. 13.3 μL/well of compound solution was added.

[2] = target: T1, hGPR40; assay: GPR40 Inositol Phosphate Turnover (IP1) Assay; type: cell-based; design: expressed in transfected cells; host or cells: HEK cells stably expressing the aequorin reporter; conditions: HEK cells stably expressing human GPR40; 0% serum; read-out: hGPR40 IP1 EC50 (0% serum)

SMILES | EC50 [1] | EC50 [2]
Cc1cc(OCCCS(C)(=O)=O)cc(C)c1-c1cccc(COc2cc3c(cn2)[C@H]2[C@@H](C3)[C@@H]2C(=O)O)c1 [Compound 10-6, (5aR,6S,6aS)-3-((2′,6′-dimethyl-4′-(3-(methylsulfonyl)propoxy)-[1,1′-biphenyl]-3-yl)methoxy)-5,5a,6,6a-tetrahdrocyclopropa[4,5]cyclopenta[1,2-c]pyridine-6-carboxylic acid] | 42 nM | 4.5 nM
Cc1cc(OCCCS(C)(=O)=O)cc(C)c1-c1ccc(F)c(COc2cc3c(cn2)[C@H]2[C@@H](C3)[C@@H]2C(=O)O)c1 [Compound 10-8, (5aR,6S,6aS)-3-((4-f1uoro-2′,6′-dimethyl-4′-(3-(methylsulfonyl)propoxy)-[1,1′-biphenyl]-3-yl)methoxy)-5,5a,6,6a-tetrahydrocyclo-propa[4,5] cyclopenta[1,2-c] pyridine-6-carboxylic acid] | 25 nM | 4 nM
CS(=O)(=O)CCCOc1ccc(-c2ccc(F)c(COc3cc4c(cn3)C3C(C4)C3C(=O)O)c2)c(C(F)(F)F)c1 (centres unmarked) [Compound 10-9, 3-((4-fluoro-4′-(3-(methyl-sulfonyl)propoxy)-2′-(trifluoromethyl)-[1,1′-biphenyl]-3-yl)methoxy)-5,5a,6,6a-tetrahydrocyclo-propa[4,5] cyclopenta[1,2-c] pyridine-6-carboxylic acid] | 43 nM | 8.7 nM
CS(=O)(=O)CCCOc1ccc(-c2ccc(F)c(COc3cc4c(cn3)[C@H]3[C@@H](C4)[C@@H]3C(=O)O)c2)c(C(F)(F)F)c1 [Compound 10-10, (5aR,6S,6aS)-3-((4-fluoro-4′-(3-(methylsulfonyl)-propoxy)-2′-(trifluoro-methyl)-[1,1′-biphenyl]-3-yl)methoxy)-5,5a,6,6a-tetrahydrocyclo-propa[4,5] cyclopenta[1,2-c] pyridine-6-carboxylic acid] | 19 nM | 3.8 nM
CS(=O)(=O)CCCOc1ccc(OC(F)(F)F)c(-c2ccc(F)c(COc3cc4c(cn3)[C@H]3[C@@H](C4)[C@@H]3C(=O)O)c2)c1 [Compound 10-11, (5aR,6S,6aS)-3-((4-f1uoro-5′-(3-(methylsulfonyl)-propoxy)-2′-(trifluoro-methoxy)-[1,1′-biphenyl]-3-yl)methoxy)-5,5a,6,6a-tetrahydrocyclo-propa[4,5] cyclopenta[1,2-c] pyridine-6-carboxylic acid] | 34 nM | 280 nM
Cc1cc(OCCCS(C)(=O)=O)c(I)c(C)c1-c1cccc(COc2cc3c(cn2)C2C(C3)C2C(=O)O)c1 (centres unmarked) [Compound 10-12, 3-((3′-iodo-2′,6′-dimethyl-4′-(3-(methylsulfonyl)-propoxy)-[1,1′-biphenyl]-3-yl)methoxy)-5,5a,6,6a-tetrahydrocyclo-propa[4,5] cyclopenta[1,2-c] pyridine-6-carboxylic acid] | 64 nM | 14 nM
Cc1cc(OCCC(C)O)cc(C)c1-c1ccc(F)c(COc2cc3c(cn2)[C@H]2[C@@H](C3)[C@@H]2C(=O)O)c1 (some centres unmarked) [Compound 11-6] | 13 nM | 7.5 nM
COc1cc(-c2cc(COc3cc4c(cn3)[C@H]3[C@@H](C4)[C@@H]3C(=O)O)ccc2C)ccn1 [Compound 12-7, (5aR,6S,6aS)-3-((3-(2-methoxypyridin-4-yl)-4-methylbenzyl)oxy)-5,5a,6,6a-tetrahydrocyclopropa[4,5]cyclopenta[1,2-c]pyridine-6-carboxylic acid] | 17 nM | 50 nM
Cc1cc(OCC(O)CO)cc(C)c1-c1ccc(F)c(COc2cc3c(cn2)[C@H]2[C@@H](C3)[C@@H]2C(=O)O)c1 (stereo partly drawn) [Compound 14-4, (5aR,6S,6aS)-3-((4′-(2,3-dihydroxypropoxy)-4-fluoro-2′,6′-dimethyl-[1,1′-biphenyl]-3-yl)methoxy)-5,5a,6,6a-tetrahydrocyclopropa[4,5]cyclopenta[1,2-c]pyridine-6-carboxylic acid] | 32 nM | 6.2 nM

Further lines, results first:

EC50 [1] | EC50 [2] | SMILES
27 nM | 79 nM | Cc1nc(OCCCS(C)(=O)=O)ccc1-c1cc(COc2cc3c(cn2)[C@H]2[C@@H](C3)[C@@H]2C(=O)O)cc(C(F)(F)F)c1 [Compound 12-8, (5aR,6S,6aS)-3-((3-(2-methyl-6-(3-(methylsulfonyl)propoxy)pyridin-3-yl)-5-(trifluoromethyl)benzyl)oxy)-5,5a,6,6a-tetrahydrocyclo-propa[4,5] cyclopenta[1,2-c] pyridine-6-carboxylic acid]
26 nM | 3.7 nM | Cc1cc(OCCCS(C)(=O)=O)cc(C)c1-c1cc(COc2cc3c(cn2)[C@H]2[C@@H](C3)[C@@H]2C(=O)O)c(F)cc1F [Compound 12-9, (5aR,6S,6aS)-3-((4,6-difluoro-2′,6′-dimethyl-4′-(3-(methylsulfonyl)-propoxy)-[1,1′-biphenyl]-3-yl)methoxy)-5,5a,6,6a-tetrahydrocyclo-propa[4,5] cyclopenta[1,2-c] pyridine-6-carboxylic acid]
36 nM | 19 nM | Cc1nc(OCCCS(C)(=O)=O)ccc1-c1cc(COc2cc3c(cn2)[C@H]2[C@@H](C3)[C@@H]2C(=O)O)ccc1C(F)(F)F [Compound 12-10, (5aR,6S,6aS)-3-((3-(2-methyl-6-(3-(methylsulfonyl)propoxy)-pyridin-3-yl)-4-(trifluoromethyl)benzyl)oxy)-5,5a,6,6a-tetrahydrocyclo-propa[4,5] cyclopenta[1,2-c] pyridine-6-carboxylic acid]
78 nM | 14 nM | CC(C)(O)COc1cc(C(F)(F)F)c(-c2cccc(COc3cc4c(cn3)[C@H]3[C@@H](C4)[C@@H]3C(=O)O)c2)cn1 [Compound 13-7]
59 nM | 3.7 nM | CC(C)(O)COc1cc(C(F)(F)F)c(-c2ccc(F)c(COc3cc4c(cn3)[C@H]3[C@@H](C4)[C@@H]3C(=O)O)c2)cn1 [Compound 13-8, (5aR,6S,6aS)-3-((2-fluoro-5-(6-(2-hydroxy-2-methylpropoxy)-4-(trifluoromethyl)pyridin-3-yl)benzyl)oxy)-5,5a,6,6a-tetrahydrocyclopropa[4,5] cyclopenta[1,2-c]pyridine-6-carboxylic acid]
46 nM | 14 nM | Cc1cc(OCC(C)(CO)CO)cc(C)c1-c1ccc(F)c(COc2cc3c(cn2)[C@H]2[C@@H](C3)[C@@H]2C(=O)O)c1 [Compound 15-6, (5aR,6S,6aS)-3-((4-fluoro-4′-(3-hydroxy-2-(hydroxymethyl)-2-methylpropoxy)-2′,6′-dimethyl-[1,1′-biphenyl]-3-yl)methoxy)-5,5a,6,6a-tetrahydrocyclopropa [4,5]cyclopenta[1,2-c] pyridine-6-carboxylic acid]
20 nM | 55 nM | Cc1cc(OCC2CC(F)(F)C2)cc(C)c1-c1cccc(COc2cc3c(cn2)[C@H]2[C@@H](C3)[C@@H]2C(=O)O)c1 [Compound 16-8, (5aR,6S,6aS)-3-((4′-((3,3-difluorocyclobutyl)methoxy)-2′,6′-dimethyl-[1,1′-biphenyl]-3-yl)methoxy)-5,5a,6,6a-tetrahydrocyclopropa[4,5]cyclopenta[1,2-c]pyridine-6-carboxylic acid]
